According to ChEMBL document CHEMBL1201862, “PubChem BioAssay data set” (2004):
Calls of active or inactive are those of the source.

What was measured:
[1] = biological target: T1, Rac GTPase-activating protein 1 (Homo sapiens, UniProt Q9H0H5); test: blockers of MgcRacGAP-driven Rac1 GTP hydrolysis – biochemical, ADP Hunter fluorescence, primary and confirmatory, confirmation (AID 624330); format: functional
T1 sequence (Q9H0H5 whole entry): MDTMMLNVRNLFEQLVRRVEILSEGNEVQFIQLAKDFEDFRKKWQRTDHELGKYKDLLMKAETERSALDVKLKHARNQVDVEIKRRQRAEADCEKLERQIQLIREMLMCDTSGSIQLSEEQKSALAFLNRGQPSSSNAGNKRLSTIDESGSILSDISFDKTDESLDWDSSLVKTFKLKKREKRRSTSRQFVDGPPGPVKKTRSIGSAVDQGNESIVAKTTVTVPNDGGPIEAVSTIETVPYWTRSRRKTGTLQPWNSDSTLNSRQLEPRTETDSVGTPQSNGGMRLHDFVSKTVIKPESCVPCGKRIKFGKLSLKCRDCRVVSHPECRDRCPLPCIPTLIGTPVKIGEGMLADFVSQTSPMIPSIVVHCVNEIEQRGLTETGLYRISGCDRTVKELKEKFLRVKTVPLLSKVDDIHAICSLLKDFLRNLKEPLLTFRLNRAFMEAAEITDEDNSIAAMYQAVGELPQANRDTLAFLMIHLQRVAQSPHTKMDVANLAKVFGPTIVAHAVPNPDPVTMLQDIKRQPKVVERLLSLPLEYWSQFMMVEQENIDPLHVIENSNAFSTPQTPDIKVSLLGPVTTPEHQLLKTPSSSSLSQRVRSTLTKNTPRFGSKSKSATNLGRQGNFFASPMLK

Streptococcus = test: GAS UMAA2166 growth inhibition – luminescence, BacTiterGlo, counter-screen for streptokinase expression inhibitor project, dose response (AID 1915); format: functional, organism-based;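 further: potency for reduction of bacterial viability or growth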
[2] = test system: Streptococcus sp. 'group A'; test: Streptococcus pyogenes SK(-)GAS viability under kanamycin – luminescence, BacTiterGlo, confirmation, counter-screen for streptokinase expression inhibitor project, dose response (AID 1900); format: functional, organism-based
Streptokinase A = biological target: T2, Streptokinase A (Streptococcus pyogenes serotype M1, UniProt P10520); test: viability-normalized secreted streptokinase activity reduction – plasminogen activation absorbance, OD405, dose response (AID 1914); format: functional, Streptococcus pyogenes M1 GAS;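 further: secreted streptokinase activity via plasminogen activation per viability signal from cell pellet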
T2 sequence (P10520 whole entry): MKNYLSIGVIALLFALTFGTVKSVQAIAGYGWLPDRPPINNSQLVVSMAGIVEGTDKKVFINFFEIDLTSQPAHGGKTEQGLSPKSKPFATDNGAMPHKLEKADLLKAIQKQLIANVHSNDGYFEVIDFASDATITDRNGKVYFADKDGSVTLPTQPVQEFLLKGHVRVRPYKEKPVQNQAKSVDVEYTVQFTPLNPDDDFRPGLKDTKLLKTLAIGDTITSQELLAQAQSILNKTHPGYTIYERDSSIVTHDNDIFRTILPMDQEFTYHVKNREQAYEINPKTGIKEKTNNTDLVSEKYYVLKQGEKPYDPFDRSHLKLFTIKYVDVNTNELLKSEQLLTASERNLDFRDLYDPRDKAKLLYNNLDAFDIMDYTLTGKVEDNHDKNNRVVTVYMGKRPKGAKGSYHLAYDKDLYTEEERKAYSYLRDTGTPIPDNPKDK

[3] = biological target: T3, Replicative DNA helicase DnaB (Mycobacterium tuberculosis, UniProt P9WMR3); test: DnaB intein splicing inhibitors, dose response, biochemical, cell-free fluorescence (AID 449749); format: functional
T3 sequence (P9WMR3 whole entry): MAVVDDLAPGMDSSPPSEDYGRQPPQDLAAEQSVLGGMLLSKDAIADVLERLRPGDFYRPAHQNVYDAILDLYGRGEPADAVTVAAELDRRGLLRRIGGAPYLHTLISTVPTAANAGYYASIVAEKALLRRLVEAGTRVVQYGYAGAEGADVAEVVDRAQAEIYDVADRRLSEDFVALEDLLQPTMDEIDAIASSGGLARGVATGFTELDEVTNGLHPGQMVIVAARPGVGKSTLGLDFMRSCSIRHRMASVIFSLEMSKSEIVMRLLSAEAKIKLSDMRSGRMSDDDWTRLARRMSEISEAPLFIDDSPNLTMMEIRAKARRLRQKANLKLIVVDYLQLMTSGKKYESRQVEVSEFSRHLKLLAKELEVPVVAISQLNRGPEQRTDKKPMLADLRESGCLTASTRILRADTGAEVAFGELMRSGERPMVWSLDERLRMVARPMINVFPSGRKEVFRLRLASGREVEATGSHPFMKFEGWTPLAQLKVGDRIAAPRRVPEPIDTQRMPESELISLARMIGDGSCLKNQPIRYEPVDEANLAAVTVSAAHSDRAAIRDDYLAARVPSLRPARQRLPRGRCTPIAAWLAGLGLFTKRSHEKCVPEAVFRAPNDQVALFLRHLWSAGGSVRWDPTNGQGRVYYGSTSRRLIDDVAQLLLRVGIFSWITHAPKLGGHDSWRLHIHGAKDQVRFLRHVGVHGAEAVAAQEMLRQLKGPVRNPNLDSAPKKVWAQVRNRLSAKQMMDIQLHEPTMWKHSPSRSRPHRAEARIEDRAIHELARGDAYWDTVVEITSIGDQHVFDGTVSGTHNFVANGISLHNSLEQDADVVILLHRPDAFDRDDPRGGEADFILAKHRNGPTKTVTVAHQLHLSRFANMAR

Protein RecA = biological target: T4, Protein RecA (Mycobacterium tuberculosis, UniProt P9WHJ3); test: Fluorescence Cell-Free Homogeneous Dose Retest to Identify Inhibitors of RecA-Intein Splicing Activity. [Related pubchem assays (depositor defined):AID2097, AID2223, AID489010, AID492950]; format: functional
T4 sequence (P9WHJ3 whole entry): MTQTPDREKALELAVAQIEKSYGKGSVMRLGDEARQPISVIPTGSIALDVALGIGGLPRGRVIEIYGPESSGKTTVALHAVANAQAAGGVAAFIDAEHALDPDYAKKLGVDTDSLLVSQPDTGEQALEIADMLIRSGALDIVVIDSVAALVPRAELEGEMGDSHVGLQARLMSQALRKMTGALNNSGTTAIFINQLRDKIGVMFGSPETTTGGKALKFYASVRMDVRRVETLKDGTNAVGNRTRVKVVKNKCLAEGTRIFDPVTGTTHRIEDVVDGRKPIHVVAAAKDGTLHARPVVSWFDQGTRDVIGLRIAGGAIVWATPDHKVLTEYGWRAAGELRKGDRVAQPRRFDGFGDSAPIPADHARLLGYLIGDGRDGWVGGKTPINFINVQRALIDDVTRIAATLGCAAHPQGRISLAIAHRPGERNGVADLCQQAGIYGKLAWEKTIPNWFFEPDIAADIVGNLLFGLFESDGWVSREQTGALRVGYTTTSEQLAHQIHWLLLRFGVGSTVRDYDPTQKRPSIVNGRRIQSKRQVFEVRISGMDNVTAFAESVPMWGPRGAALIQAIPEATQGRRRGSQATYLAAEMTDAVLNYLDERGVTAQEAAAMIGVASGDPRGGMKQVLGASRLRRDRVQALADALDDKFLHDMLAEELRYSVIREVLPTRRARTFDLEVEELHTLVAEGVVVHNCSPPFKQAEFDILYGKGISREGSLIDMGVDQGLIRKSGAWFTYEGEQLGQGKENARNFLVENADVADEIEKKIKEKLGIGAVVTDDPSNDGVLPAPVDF

Cytochrome P450 2D6 = Cytochrome P450 2D6 (Homo sapiens, UniProt P10635);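 further: CYP2D6 member of a cytochrome P450 panel assay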
Cytochrome P450 2C9 = Cytochrome P450 2C9 (Homo sapiens, UniProt P11712)
Cytochrome P450 1A2 = biological target: T5, Cytochrome P450 1A2 (Homo sapiens, UniProt P05177);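 further: PubChem cytochrome P450 panel assay, CYP1A2 panel member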
T5 sequence (P05177 whole entry): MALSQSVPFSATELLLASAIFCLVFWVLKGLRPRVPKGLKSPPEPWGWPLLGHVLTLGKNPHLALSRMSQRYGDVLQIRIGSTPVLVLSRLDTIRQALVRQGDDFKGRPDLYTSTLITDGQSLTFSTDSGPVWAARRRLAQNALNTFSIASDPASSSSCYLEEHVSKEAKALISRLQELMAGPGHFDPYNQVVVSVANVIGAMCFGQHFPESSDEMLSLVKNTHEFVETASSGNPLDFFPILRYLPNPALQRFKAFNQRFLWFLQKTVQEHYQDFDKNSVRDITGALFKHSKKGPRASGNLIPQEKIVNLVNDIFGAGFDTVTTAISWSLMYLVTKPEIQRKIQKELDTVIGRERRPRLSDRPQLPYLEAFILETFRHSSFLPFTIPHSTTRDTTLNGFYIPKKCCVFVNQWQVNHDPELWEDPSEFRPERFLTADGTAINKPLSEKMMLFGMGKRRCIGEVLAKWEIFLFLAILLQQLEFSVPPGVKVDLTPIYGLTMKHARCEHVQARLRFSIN

Cytochrome P450 3A4 = Cytochrome P450 3A4 (Homo sapiens, UniProt P08684);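 further: CYP3A4 tested as one member of a cytochrome P450 panel screen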
[4] = Luminescence Cell-Based Dose Retest to Confirm Inhibitors of Cancer Stem Cells. [Related pubchem assays (depositor defined):AID2717, AID2721]; format: functional; conditions: Homo sapiens

Sequence of Cytochrome P450 2D6 (P10635 whole entry): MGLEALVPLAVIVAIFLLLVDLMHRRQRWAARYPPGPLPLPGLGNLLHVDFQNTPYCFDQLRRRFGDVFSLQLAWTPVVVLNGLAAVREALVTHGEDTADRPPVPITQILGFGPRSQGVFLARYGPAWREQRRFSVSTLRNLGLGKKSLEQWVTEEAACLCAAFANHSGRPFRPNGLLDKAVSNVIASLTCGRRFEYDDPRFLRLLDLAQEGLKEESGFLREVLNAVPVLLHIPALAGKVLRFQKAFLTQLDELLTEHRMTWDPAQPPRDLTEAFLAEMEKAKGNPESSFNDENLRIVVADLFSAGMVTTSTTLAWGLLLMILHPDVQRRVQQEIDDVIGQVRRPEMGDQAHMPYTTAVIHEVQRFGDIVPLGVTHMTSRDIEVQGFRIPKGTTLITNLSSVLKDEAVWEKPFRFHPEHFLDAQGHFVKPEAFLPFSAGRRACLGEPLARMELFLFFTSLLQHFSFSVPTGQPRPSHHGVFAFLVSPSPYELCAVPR
Sequence of Cytochrome P450 2C9 (P11712 whole entry): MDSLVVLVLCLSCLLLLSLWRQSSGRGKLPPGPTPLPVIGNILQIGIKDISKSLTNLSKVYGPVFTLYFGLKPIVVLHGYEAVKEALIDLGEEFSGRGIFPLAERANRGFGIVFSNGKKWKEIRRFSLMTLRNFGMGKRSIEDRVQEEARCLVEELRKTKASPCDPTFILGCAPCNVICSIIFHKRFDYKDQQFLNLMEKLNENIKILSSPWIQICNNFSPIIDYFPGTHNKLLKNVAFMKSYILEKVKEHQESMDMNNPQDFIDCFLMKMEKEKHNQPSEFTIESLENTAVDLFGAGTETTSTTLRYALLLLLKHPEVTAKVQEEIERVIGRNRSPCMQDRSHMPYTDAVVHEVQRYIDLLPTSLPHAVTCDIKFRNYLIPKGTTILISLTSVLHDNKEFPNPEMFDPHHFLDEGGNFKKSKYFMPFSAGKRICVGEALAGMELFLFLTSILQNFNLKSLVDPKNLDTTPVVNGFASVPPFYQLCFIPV
Sequence of Cytochrome P450 3A4 (P08684 whole entry): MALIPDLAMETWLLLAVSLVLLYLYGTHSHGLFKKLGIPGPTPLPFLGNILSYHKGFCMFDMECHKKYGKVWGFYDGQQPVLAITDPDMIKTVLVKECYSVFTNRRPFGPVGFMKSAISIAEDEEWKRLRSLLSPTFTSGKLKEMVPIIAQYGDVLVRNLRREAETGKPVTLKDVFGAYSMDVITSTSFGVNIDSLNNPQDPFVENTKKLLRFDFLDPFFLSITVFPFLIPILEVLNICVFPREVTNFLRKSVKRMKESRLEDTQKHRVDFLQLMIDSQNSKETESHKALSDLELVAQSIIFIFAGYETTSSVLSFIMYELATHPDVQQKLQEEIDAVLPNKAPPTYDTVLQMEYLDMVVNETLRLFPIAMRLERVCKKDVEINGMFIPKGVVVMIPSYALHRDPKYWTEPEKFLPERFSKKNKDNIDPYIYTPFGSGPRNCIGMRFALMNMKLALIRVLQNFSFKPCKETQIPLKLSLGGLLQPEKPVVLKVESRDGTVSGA

SMILES	IC50 [1]	EC50 (Streptococcus)	EC50 [2]	EC50 (Streptokinase A)	further results
CC1=CC(C)(C)N(C(=O)CNC2CCCC2)c2cc(C)ccc21	158 µM (active)	–	–	–	–
Nc1ccccc1Sc1nc2ccccc2[nH]1	–	> 150 µM (not active)	21.3 µM (active)	> 150 µM (not active)	–
Cc1nc(Nc2ccc(O)cc2)c2c3c(sc2n1)CCCC3	28.8 µM (active)	–	–	–	AC50 [3]: > 380 µM (inactive); EC50 (Protein RecA): 125 µM (active)
COc1cccc(Cn2c(=O)cnc3cnc(Oc4cccc(Cl)c4)nc32)c1	–	–	–	–	AC50 (Cytochrome P450 2D6): 39.8 µM (inconclusive)
Cc1ccccc1C(OCC(O)CN1CCN(CCO)CC1)c1ccccc1 (stereo not given)	80.2 µM (active)	–	–	–	–
CCCCn1c(C)cc2cc(O)ccc21	26.9 µM (active)	–	–	–	–
CCC(C)(C)n1nnnc1C(c1cc2cc3c(cc2nc1O)OCO3)N1CCCCC1 (stereo not given)	–	–	–	–	AC50 (Cytochrome P450 2C9): 0.02 µM (inconclusive); AC50 (Cytochrome P450 1A2): 17.8 µM (inconclusive)
Cc1cc(OC(=O)CCCNC(=O)OC(C)(C)C)c2c3c(c(=O)oc2c1)CCC3	–	–	–	–	AC50 (Cytochrome P450 2D6): 15.8 µM (inconclusive)
CCC(=O)OCc1c(C(F)(F)F)nn(C)c1Sc1ccc(F)cc1	–	–	–	–	AC50 (Cytochrome P450 3A4): 25.1 µM (inconclusive); AC50 (Cytochrome P450 1A2): 12.6 µM (inconclusive)
Cc1cc(=O)oc2cc(OCC(=O)N3CCN(C(=O)C4COc5ccccc5O4)CC3)ccc12 (stereo not given)	–	10.4 µM (active)	2.83 µM (active)	> 50 µM (not active)	–
Cc1ccc(C)c(OCCCCN2CCCCC2)c1	176 µM (active)	–	–	–	–
CCOC(=O)c1c(S(=O)(=O)N2CCCCCC2)c(C)n(C)c1C	–	> 150 µM (not active)	> 150 µM (not active)	> 150 µM (not active)	–
CC(C)(C)OC(=O)[C@H](Cc1ccccc1)NC(=O)c1[nH]cnc1C(=O)Nc1ccc(Cl)cc1	–	11.1 µM (active)	3.71 µM (active)	21.5 µM (active)	AC50 [4]: 4.51 µM (active)
Cc1oc2cc(Br)c(O)c(Br)c2c1-c1ccccc1	–	8.18 µM (active)	8.24 µM (active)	> 150 µM (not active)	–
O=C(NCc1ccccc1)c1cccc(COc2cccc(Cl)c2)c1	–	–	–	–	AC50 (Cytochrome P450 2D6): 31.6 µM (inconclusive)
